Experimental data published in ChEMBL document CHEMBL5291721, “A preclinical secondary pharmacology resource illuminates target-adverse drug reaction associations of marketed drugs” (Nat Commun, 2023).

Experiments:
[1] = biological target: T1, Alpha-1A adrenergic receptor (Homo sapiens, UniProt P35348); type: functional, cell-based
T1 sequence (P35348 whole entry): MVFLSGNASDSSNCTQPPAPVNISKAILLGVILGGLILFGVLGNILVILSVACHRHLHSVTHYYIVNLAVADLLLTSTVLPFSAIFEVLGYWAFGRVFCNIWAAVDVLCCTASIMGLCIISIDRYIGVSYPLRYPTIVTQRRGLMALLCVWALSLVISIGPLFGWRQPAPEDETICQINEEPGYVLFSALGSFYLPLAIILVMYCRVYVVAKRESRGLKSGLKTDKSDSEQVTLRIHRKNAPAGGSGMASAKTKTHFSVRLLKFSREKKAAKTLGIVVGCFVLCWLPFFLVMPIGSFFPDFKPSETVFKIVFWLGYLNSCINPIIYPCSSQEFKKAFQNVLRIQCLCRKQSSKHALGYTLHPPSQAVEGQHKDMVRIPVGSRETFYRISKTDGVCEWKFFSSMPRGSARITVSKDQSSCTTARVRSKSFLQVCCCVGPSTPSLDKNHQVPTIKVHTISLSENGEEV

Adenosine receptor A3 = biological target: T2, Adenosine receptor A3 (Homo sapiens, UniProt P0DMS8)
T2 sequence (P0DMS8 whole entry): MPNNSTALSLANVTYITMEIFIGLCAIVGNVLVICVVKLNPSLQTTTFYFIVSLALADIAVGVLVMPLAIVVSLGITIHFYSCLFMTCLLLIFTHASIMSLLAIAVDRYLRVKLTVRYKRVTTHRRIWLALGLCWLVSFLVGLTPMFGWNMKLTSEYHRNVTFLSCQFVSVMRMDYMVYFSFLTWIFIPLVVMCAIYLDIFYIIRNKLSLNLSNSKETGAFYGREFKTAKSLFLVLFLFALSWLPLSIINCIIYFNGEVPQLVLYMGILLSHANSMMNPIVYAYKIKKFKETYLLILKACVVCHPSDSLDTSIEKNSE

[2] = biological target: 5-hydroxytryptamine receptor 2B (Homo sapiens, UniProt P41595); type: functional, cell-based
5-hydroxytryptamine receptor 2B, sequence (P41595 whole entry): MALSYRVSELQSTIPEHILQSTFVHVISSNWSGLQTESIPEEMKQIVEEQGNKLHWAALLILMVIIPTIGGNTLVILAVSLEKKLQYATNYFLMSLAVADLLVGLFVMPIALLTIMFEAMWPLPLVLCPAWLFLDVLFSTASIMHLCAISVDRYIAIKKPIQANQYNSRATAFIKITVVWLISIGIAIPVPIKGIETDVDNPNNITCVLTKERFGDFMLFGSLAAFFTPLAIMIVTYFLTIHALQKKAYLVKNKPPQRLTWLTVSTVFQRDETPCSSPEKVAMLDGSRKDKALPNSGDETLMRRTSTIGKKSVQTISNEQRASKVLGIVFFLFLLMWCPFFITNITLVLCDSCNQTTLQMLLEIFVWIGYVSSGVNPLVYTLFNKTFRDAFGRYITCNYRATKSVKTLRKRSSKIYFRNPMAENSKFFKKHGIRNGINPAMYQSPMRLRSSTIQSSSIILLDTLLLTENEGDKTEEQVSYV

[3] = biological target: Prostaglandin G/H synthase 1 (Homo sapiens, UniProt P23219); type: functional
Estrogen receptor = biological target: T3, Estrogen receptor (Homo sapiens, UniProt P03372)
T3 sequence (P03372 whole entry): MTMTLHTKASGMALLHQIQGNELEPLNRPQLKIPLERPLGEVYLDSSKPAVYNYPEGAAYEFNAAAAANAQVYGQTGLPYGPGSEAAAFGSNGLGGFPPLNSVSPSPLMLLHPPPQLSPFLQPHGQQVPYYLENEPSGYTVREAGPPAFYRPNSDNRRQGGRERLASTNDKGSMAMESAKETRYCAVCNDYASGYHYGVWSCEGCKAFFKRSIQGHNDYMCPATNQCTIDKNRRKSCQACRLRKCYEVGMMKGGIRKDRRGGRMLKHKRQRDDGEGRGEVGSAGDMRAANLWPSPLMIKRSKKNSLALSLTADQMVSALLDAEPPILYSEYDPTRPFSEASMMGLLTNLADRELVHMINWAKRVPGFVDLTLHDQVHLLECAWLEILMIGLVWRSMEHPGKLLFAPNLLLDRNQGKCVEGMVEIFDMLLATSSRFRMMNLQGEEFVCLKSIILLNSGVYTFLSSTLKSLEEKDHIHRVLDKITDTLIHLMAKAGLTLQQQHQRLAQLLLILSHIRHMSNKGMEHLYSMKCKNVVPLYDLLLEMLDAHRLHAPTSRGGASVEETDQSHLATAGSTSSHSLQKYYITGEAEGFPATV

[4] = biological target: Sodium-dependent dopamine transporter (Homo sapiens, UniProt Q01959)
Sodium-dependent dopamine transporter, sequence (Q01959 whole entry): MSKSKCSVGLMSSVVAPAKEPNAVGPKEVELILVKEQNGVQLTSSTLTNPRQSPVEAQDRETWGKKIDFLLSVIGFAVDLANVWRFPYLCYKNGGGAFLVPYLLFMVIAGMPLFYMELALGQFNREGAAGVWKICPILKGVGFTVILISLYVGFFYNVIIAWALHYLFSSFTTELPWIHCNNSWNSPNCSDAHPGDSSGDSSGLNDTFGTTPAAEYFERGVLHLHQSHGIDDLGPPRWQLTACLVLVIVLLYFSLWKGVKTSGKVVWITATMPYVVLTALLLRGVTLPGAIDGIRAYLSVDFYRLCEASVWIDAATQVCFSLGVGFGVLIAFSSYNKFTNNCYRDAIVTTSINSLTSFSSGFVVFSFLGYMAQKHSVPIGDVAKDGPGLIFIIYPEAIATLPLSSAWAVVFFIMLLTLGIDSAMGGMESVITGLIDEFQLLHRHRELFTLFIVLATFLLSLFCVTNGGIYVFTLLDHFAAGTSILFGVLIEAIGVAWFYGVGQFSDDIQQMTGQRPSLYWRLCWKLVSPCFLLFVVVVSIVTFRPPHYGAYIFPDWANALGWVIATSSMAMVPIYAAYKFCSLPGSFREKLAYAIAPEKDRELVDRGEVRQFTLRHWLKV

[5] = biological target: cGMP-inhibited 3',5'-cyclic phosphodiesterase 3A (Homo sapiens, UniProt Q14432); type: functional
cGMP-inhibited 3',5'-cyclic phosphodiesterase 3A, sequence (Q14432 whole entry): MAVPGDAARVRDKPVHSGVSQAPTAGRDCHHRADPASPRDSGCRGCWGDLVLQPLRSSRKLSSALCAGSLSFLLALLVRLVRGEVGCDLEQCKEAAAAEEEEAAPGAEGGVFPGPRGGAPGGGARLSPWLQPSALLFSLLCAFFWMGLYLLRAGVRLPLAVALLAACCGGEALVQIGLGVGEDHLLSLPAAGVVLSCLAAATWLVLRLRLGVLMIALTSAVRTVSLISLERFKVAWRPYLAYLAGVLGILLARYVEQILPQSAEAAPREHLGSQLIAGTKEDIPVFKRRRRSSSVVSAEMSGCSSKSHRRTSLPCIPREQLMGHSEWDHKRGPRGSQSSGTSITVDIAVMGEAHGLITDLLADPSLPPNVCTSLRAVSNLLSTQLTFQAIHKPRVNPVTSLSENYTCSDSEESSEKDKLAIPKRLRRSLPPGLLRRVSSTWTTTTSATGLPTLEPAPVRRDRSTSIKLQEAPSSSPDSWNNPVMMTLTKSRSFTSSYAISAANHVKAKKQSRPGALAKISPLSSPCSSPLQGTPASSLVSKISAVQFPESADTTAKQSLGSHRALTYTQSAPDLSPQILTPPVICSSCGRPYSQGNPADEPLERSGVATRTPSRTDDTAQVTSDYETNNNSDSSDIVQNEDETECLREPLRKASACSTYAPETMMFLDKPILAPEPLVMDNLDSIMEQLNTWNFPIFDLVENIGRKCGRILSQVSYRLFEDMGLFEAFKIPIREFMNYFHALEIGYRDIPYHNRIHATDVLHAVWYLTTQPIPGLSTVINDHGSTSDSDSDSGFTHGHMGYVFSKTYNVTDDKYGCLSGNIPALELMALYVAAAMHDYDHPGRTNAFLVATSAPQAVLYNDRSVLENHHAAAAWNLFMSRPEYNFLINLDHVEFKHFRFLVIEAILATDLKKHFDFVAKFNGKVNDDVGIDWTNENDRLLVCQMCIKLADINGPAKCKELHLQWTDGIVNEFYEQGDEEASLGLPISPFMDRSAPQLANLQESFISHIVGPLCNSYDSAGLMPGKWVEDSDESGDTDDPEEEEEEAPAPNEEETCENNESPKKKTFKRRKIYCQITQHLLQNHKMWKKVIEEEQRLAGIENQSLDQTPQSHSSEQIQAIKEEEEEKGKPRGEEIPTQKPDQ

[6] = biological target: T1, Alpha-1A adrenergic receptor; type: functional, cell-based; remark: listed apart in the source
Progesterone receptor = biological target: T4, Progesterone receptor (Homo sapiens, UniProt P06401)
T4 sequence (P06401 whole entry): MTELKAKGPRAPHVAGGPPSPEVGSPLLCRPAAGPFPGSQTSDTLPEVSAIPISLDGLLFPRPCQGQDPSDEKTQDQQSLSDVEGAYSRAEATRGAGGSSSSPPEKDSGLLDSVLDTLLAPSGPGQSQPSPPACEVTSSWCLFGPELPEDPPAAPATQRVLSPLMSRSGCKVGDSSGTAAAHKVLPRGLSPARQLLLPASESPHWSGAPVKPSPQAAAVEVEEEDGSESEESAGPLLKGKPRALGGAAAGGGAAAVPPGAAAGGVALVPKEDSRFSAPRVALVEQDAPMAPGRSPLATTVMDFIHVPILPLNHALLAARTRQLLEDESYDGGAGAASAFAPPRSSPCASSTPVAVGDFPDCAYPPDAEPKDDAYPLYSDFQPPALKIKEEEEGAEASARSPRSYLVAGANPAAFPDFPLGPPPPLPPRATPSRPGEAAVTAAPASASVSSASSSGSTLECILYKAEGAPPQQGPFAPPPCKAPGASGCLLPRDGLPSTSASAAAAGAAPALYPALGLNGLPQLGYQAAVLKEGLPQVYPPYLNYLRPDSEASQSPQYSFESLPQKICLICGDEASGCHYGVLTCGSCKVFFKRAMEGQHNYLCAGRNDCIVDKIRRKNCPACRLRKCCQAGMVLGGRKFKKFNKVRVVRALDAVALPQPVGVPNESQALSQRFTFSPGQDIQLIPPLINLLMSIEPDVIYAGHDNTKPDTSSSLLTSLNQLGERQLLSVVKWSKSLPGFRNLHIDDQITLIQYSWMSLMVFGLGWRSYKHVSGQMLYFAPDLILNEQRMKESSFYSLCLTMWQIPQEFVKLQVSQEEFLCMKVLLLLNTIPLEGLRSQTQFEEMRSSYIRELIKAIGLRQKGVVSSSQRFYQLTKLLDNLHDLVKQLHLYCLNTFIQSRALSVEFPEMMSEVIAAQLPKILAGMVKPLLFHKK

[7] = biological target: Sodium-dependent serotonin transporter (Homo sapiens, UniProt P31645)
Sodium-dependent serotonin transporter, sequence (P31645 whole entry): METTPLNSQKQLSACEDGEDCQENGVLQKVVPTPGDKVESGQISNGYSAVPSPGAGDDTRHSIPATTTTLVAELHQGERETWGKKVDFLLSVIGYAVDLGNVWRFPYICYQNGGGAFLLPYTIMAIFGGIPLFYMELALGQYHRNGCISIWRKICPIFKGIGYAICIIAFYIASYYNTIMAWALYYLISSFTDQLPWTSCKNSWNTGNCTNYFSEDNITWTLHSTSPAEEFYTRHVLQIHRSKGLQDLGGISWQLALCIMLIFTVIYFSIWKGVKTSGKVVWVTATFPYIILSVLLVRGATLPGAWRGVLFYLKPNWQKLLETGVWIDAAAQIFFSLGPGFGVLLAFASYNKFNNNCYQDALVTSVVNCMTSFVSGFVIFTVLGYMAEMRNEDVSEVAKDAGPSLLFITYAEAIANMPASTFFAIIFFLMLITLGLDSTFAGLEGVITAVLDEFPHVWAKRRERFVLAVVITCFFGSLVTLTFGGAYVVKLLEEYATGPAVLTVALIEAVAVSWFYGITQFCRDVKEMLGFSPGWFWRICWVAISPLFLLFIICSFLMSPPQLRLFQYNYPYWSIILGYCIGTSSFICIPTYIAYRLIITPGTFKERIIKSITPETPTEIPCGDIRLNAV

[8] = biological target: 3',5'-cyclic-AMP phosphodiesterase 4A (Homo sapiens, UniProt P27815); type: functional
3',5'-cyclic-AMP phosphodiesterase 4A, sequence (P27815 whole entry): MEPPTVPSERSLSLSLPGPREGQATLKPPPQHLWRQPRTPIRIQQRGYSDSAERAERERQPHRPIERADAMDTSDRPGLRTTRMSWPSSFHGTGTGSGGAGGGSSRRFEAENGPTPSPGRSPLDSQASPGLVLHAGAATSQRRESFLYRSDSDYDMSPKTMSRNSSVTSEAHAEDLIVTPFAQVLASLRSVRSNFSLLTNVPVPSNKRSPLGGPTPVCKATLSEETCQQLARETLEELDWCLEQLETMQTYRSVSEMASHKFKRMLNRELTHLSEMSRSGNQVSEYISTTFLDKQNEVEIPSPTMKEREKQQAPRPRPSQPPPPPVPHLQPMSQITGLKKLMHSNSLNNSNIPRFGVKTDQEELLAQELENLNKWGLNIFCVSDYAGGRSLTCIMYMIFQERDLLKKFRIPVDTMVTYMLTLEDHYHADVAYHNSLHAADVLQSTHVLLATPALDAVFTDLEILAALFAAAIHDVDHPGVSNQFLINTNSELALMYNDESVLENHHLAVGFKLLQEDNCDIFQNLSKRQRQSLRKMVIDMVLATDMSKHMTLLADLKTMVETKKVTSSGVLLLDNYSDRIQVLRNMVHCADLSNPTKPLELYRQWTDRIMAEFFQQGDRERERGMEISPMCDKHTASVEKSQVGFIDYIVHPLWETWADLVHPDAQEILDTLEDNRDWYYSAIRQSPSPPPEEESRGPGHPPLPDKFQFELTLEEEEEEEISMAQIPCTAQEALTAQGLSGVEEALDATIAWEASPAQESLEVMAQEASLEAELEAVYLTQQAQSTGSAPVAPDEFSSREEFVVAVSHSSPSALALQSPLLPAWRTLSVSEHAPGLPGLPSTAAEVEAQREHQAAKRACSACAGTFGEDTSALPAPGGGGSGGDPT

[9] = biological target: Gamma-aminobutyric acid receptor subunit alpha-1 (Rattus norvegicus, UniProt P62813)
[10] = biological target: Voltage-gated inwardly rectifying potassium channel KCNH2 (Homo sapiens, UniProt Q12809); type: functional; conditions: read-out: AC50
Voltage-gated inwardly rectifying potassium channel KCNH2, sequence (Q12809 whole entry): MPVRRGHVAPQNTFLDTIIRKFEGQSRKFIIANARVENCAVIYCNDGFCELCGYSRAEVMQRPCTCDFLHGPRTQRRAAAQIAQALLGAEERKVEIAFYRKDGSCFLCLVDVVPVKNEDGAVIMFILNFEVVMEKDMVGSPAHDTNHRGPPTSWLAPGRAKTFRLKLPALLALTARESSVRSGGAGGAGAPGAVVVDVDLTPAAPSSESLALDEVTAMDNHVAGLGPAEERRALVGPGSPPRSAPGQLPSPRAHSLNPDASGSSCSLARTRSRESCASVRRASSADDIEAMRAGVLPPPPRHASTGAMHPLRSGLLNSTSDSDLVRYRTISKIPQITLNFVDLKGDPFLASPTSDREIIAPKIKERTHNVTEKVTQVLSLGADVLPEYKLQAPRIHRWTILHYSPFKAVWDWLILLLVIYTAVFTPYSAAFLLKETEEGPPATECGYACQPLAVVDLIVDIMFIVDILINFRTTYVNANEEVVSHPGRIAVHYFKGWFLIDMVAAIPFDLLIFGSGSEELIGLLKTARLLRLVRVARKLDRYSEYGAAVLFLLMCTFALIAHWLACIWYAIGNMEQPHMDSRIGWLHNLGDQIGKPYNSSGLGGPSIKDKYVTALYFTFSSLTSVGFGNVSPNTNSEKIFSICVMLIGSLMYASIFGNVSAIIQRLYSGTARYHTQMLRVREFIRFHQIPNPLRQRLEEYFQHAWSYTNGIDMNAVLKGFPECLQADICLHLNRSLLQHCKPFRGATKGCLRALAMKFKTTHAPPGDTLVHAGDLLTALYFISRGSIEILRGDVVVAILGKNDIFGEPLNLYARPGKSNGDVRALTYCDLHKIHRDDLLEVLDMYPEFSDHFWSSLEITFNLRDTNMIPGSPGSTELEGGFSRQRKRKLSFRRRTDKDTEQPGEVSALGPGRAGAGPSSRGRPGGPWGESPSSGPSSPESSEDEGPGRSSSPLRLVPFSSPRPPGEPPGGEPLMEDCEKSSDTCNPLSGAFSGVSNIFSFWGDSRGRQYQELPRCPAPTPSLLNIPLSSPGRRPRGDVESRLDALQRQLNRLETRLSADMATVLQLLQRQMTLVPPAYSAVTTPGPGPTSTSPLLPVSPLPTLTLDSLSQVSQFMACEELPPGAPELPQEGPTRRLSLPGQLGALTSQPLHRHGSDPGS
Further: assay procedure not described here.

| Compound | AC50 [1] [µM] | AC50 (Adenosine receptor A3) [µM] | AC50 [2] [µM] | AC50 [3] [µM] | AC50 (Estrogen receptor) [µM] | AC50 [4] [µM] | AC50 [5] [µM] | AC50 [6] [µM] | AC50 (Progesterone receptor) [µM] | AC50 [7] [µM] | AC50 [8] [µM] | AC50 [9] [µM] | AC50 [10] [µM] |
| --- | --- | --- | --- | --- | --- | --- | --- | --- | --- | --- | --- | --- | --- |
| O=P(O)(O)C(Cl)(Cl)P(=O)(O)O [CLODRONIC ACID] | > 30 | > 30 | > 30 | > 30 | > 30 | > 30 | > 30 | > 30 | > 30 | > 30 | > 30 | – | – |
| CO/N=C(\C(=O)N[C@@H]1C(=O)N2C(C(=O)[O-])=C(C[n+]3cccc4c3CCC4)CS[C@H]12)c1csc(N)n1 [CEFPIROME] | > 30 | – | > 30 | > 30 | > 30 | > 30 | > 30 | > 30 | > 30 | > 30 | > 30 | > 30 | > 30 |
| c1ccc2c(CC3=NCCN3)cccc2c1 [NAPHAZOLINE] | – | > 30 | > 30 | > 30 | > 30 | > 30 | > 30 | 0.0014 | > 30 | > 30 | > 30 | – | > 30 |
| Cc1cc(CCN2CCN(c3cccc(Cl)c3)CC2)n[nH]1 [MEPIPRAZOLE] | – | > 30 | > 30 | > 30 | > 30 | 8.04 | > 30 | 0.43 | > 30 | 3.8 | > 30 | – | 2.71 |
| CCOC(=O)[C@H](CCc1ccccc1)N[C@H]1CS[C@H](c2cccs2)CN(CC(=O)O)C1=O [TEMOCAPRIL] | > 30 | > 30 | > 30 | > 30 | > 30 | > 30 | > 30 | > 30 | – | > 30 | > 10 | – | > 30 |
| CC(c1ccc(Cl)c(Cl)c1)N1N=C(N)CC1=O (stereo not drawn) [MUZOLIMINE] | > 30 | > 30 | > 30 | > 30 | > 30 | > 30 | > 30 | > 30 | > 30 | > 30 | > 30 | – | – |
| Nc1ccncc1 [DALFAMPRIDINE] | > 30 | > 30 | > 30 | > 30 | > 30 | > 30 | > 30 | > 30 | > 30 | > 30 | > 30 | – | – |
